Test results: US20070027150A1 (priority 2005, published 2007)
Read-outs that look alike come from different tables or passages of the source.

Biological target: His-tagged N-terminal ATP binding domain (amino acid residues 9-236) of HSP90α (Homo sapiens, UniProt P07900)
Assay: HSP90 inhibitor binding potency: TRF competition binding assay
Details: read-out: Hsp90 IC50 Range
Method in brief: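 Competition against biotinylated radicicol for binding to the His-tagged 9-236 ATP domain of HSP90α: 2 h, room temperature, HEPES/MgCl2/KCl/BSA buffer. Streptavidin capture, then europium-labeled anti-His antibody and enhancement solution; europium counts give IC50.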

Row | SMILES | IC50 (Table I) | IC50 (Table II)
1 | Cc1nc(N)nc2c1C(=O)CC(c1c(OCCN)cccc1-c1cccnc1F)C2 (stereo not drawn) [Compound 153, 2-amino-7-[2-(2-amino-ethoxy)-6-(2-fluoro-pyridin-3-yl)-phenyl]-4-methyl-7,8-dihydro-6H-quinazolin-5-one] | < 1 µM | –
2 | Cc1nc(N)nc2c1C(=O)CC(c1c(OCCN3CCCCC3)cccc1-c1cccnc1F)C2 (stereo not drawn) [Compound 155, 2-amino-7-[2-(2-fluoro-pyridin-3-yl)-6-(2-piperidin-1-yl-ethoxy)-phenyl]-4-methyl-7,8-dihydro-6H-quinazolin-5-one] | < 1 µM | –
3 | Cc1nc(N)nc2c1C(=O)CC(c1c(OCCN3CCNCC3)cccc1-c1cccnc1F)C2 (stereo not drawn) [Compound 156, 2-amino-7-[2-(2-fluoro-pyridin-3-yl)-6-(2-piperazin-1-yl-ethoxy)-phenyl]-4-methyl-7,8-dihydro-6H-quinazolin-5-one] | < 1 µM | –
4 | Cc1nc(N)nc2c1C(=O)CC(c1c(OCCN3CCOCC3)cccc1-c1cccnc1F)C2 (stereo not drawn) [Compound 157, 2-amino-7-[2-(2-fluoro-pyridin-3-yl)-6-(2-morpholin-4-yl-ethoxy)-phenyl]-4-methyl-7,8-dihydro-6H-quinazolin-5-one] | < 1 µM | –
5 | Cc1nc(N)nc2c1C(=O)CC(c1c(OCCN3CCN(C)CC3)cccc1-c1cccnc1F)C2 (stereo not drawn) [Compound 158, 2-amino-7-{2-(2-fluoro-pyridin-3-yl)-6-[2-(4-methyl-piperazin-1-yl)-ethoxy]-phenyl}-4-methyl-7,8-dihydro-6H-quinazolin-5-one] | < 1 µM | –
6 | Cc1nc(N)nc2c1C(=O)CC(c1ccccc1CCc1ccccc1)C2 (stereo not drawn) [Compound 162, 2-amino-4-methyl-7-[2-(2-phenylethyl)phenyl]-7,8-dihydroquinazolin-5(6H)-one] | > 10 µM | –
7 | Cc1nc(N)nc2c1C(=O)CC(c1ccccc1N1CCCC1=O)C2 (stereo not drawn) [Compound 163, 2-amino-4-methyl-7-[2-(2-oxo-pyrrolidin-1-yl)-phenyl]-7,8-dihydro-6H-quinazolin-5-one] | 1 to 10 µM | –
8 | Cc1nc(N)nc2c1C(=O)CC(c1ccccc1Nc1ccccc1)C2 (stereo not drawn) [Compound 164, 2-amino-4-methyl-7-(2-phenylamino-phenyl)-7,8-dihydro-6H-quinazolin-5-one] | < 1 µM | –
9 | COC(=O)c1ccccc1C1CC(=O)c2c(C)nc(N)nc2C1 (stereo not drawn) [Compound 165, methyl 2-(2-amino-4-methyl-5-oxo-5,6,7,8-tetrahydroquinazolin-7-yl)benzoate] | < 1 µM | –
10 | Cc1nc(N)nc2c1C(=O)CC(c1ccccc1Oc1cc[nH]c(=O)c1)C2 (stereo not drawn) [Compound 167, 2-amino-4-methyl-7-[2-(2-oxo-1,2-dihydro-pyridin-4-yloxy)-phenyl]-7,8-dihydro-6H-quinazolin-5-one] | 1 to 10 µM | –
11 | Cc1nc(N)nc2c1C(=O)CC(c1c(O)cccc1Cl)C2 (stereo not drawn) [Compound 168, 2-Amino-7-(2-chloro-6-hydroxy-phenyl)-4-methyl-7,8-dihydro-6H-quinazolin-5-one] | > 10 µM | –
12 | Cc1nc(N)nc2c1C(=O)CC(c1ccccc1C1CCCCC1)C2 (stereo not drawn) [Compound 171, 2-amino-7-(2-cyclohexylphenyl)-4-methyl-7,8-dihydroquinazolin-5(6H)-one] | < 1 µM | –
13 | Cc1nc(N)nc2c1C(=O)CC(c1ccc(F)cc1C1CCCCC1)C2 (stereo not drawn) [Compound 172, 2-amino-7-(2-cyclohexyl-4-fluorophenyl)-4-methyl-7,8-dihydroquinazolin-5(6H)-one] | 1 to 10 µM | –
14 | COc1cccc(C2CCCCC2)c1C1CC(=O)c2c(C)nc(N)nc2C1 (stereo not drawn) [Compound 173, 2-amino-7-(2-cyclohexyl-6-methoxyphenyl)-4-methyl-7,8-dihydroquinazolin-5(6H)-one] | > 10 µM | –
15 | Cc1nc(N)nc2c1C(=O)CC(c1ccccc1-c1cccc(CN(C)C)c1)C2 (stereo not drawn) [Compound 174, 2-amino-7-{3′-[(dimethylamino)methyl]-1,1′-biphenyl-2-yl}-4-methyl-7,8-dihydroquinazolin-5(6H)-one] | 1 to 10 µM | –
16 | Cc1nc(N)nc2c1C(=O)CC(c1ncccc1OC(C)C)C2 (stereo not drawn) [Compound 175, 2-amino-7-(3-isopropoxy-pyridin-2-yl)-4-methyl-7,8-dihydro-6H-quinazolin-5-one] | – | < 1 µM
17 | Cc1nc(N)nc2c1C(=O)CC(c1ncccc1OC1CCCC1)C2 (stereo not drawn) [Compound 177, 2-amino-7-(3-cyclopentyloxy-pyridin-2-yl)-4-methyl-7,8-dihydro-6H-quinazolin-5-one] | – | < 1 µM
18 | Cc1nc(N)nc2c1C(=O)CC(c1ncccc1OC1CCCC1)C2 (stereo not drawn) [Compound 178, 2-amino-7-(3-cyclopentyloxy-pyridin-2-yl)-4-methyl-7,8-dihydro-6H-quinazolin-5-one] | – | < 1 µM
19 | Cc1nc(N)nc2c1C(=O)CC(c1ccc(F)cc1OCC1CC1)C2 (stereo not drawn) [Compound 179, 2-amino-7-(2-cyclopropylmethoxy-4-fluoro-phenyl)-4-methyl-7,8-dihydro-6H-quinazolin-5-one] | – | < 1 µM
20 | Cc1nc(N)nc2c1C(=O)CC(c1ccccc1SC(C)(C)C)C2 (stereo not drawn) [Compound 180, 2-amino-7-(2-tert-butylsulfanyl-phenyl)-4-methyl-7,8-dihydro-6H-quinazolin-5-one] | – | < 1 µM

Second part, the compound after the results:

Row | IC50 (Table I) | IC50 (Table II) | SMILES
21 | > 10 µM | – | Cc1nc(N)nc2c1C(=O)CC(c1c(Cl)cccc1OCCN1CCN(C)CC1)C2 (stereo not drawn) [Compound 154, 2-amino-7-{2-chloro-6-[2-(4-methyl-piperazin-1-yl)-ethoxy]-phenyl}-4-methyl-7,8-dihydro-6H-quinazolin-5-one]
22 | 1 to 10 µM | – | Cc1nc(N)nc2c1C(=O)CC(c1cccc3ccccc13)C2 (stereo not drawn) [Compound 159, 2-amino-4-methyl-7-(1-naphthyl)-7,8-dihydroquinazolin-5(6H)-one]
23 | > 10 µM | – | Cc1nc(N)nc2c1C(=O)CC(c1cccnc1)C2 (stereo not drawn) [Compound 160, 2-amino-4-methyl-7-pyridin-3-yl-7,8-dihydroquinazolin-5(6H)-one]
24 | < 1 µM | – | Cc1nc(N)nc2c1C(=O)CC(c1cnccc1-c1ccccc1)C2 (stereo not drawn) [Compound 161, 2-amino-4-methyl-7-(4-phenylpyridin-3-yl)-7,8-dihydroquinazolin-5(6H)-one]
25 | > 10 µM | – | Cc1nc(N)nc2c1C(=O)CC(c1cccc(C(N)=O)c1)C2 (stereo not drawn) [Compound 166, 3-(2-amino-4-methyl-5-oxo-5,6,7,8-tetrahydroquinazolin-7-yl)benzamide]
26 | < 1 µM | – | Cc1nc(N)nc2c1C(=O)CC(c1ccccc1-c1ccc[nH]c1=O)C2 (stereo not drawn) [Compound 169, 2-amino-4-methyl-7-[2-(2-oxo-1,2-dihydropyridin-3-yl)phenyl]-7,8-dihydroquinazolin-5(6H)-one]
27 | < 1 µM | – | Cc1nc(N)nc2c1C(=O)CC(c1c(O)cccc1-c1cccnc1F)C2 (stereo not drawn) [Compound 170, 2-amino-7-[2-(2-fluoro-pyridin-3-yl)-6-hydroxy-phenyl]-4-methyl-7,8-dihydro-6H-quinazolin-5-one]
28 | – | < 1 µM | Cc1nc(N)nc2c1C(=O)CC(c1ccc(F)cc1OC(C)C)C2 (stereo not drawn) [Compound 176, 2-amino-7-(4-fluoro-2-isopropoxy-phenyl)-4-methyl-7,8-dihydro-6H-quinazolin-5-one]
29 | – | < 1 µM | Cc1nc(N)nc2c1C(=O)CC(c1ccc(F)cc1OC1CCCC1)C2 (stereo not drawn) [Compound 181, 2-amino-7-(2-cyclopentyloxy-4-fluoro-phenyl)-4-methyl-7,8-dihydro-6H-quinazolin-5-one]
30 | – | < 1 µM | Cc1nc(N)nc2c1C(=O)CC(c1ccccc1S(=O)(=O)C(C)(C)C)C2 (stereo not drawn) [Compound 182, 2-amino-4-methyl-7-[2-(2-methyl-propane-2-sulfonyl)-phenyl]-7,8-dihydro-6H-quinazolin-5-one]
